Like-named read-outs stand apart in the source and are kept apart here.
Legend:
log p determination = assay type: physicochemical
[1] = system: larvae of the mustard beetle (Phaedon cochleariae); experiment: Phaedon larvae test; assay type: in vivo; conditions: 168 h, concentration of active compound 0.1 %, cabbage leaves dipped, after 7 d, read-out: Kill rate in % after 7 d
Description: Solvent: 7 parts by weight of dimethylformamide Emulsifier: 1 part by weight of alkylaryl polyglycol ether To produce a suitable preparation of active compound, 1 part by weight of active compound is mixed with the stated amount of solvent and the stated amount of emulsifier, and the concentrate is diluted with water to the desired concentration. Cabbage leaves (Brassica oleracea) are treated by being dipped into the preparation of active compound and are populated with larvae of the mustard beetle (Phaedon cochleariae) while the leaves are still moist.

Podosphaera leucotricha = experiment: Podosphaera test (apple) / protective; assay type: in vivo; conditions: application rate 100 g/ha, evaluation 10 days after inoculation
Description: (§1) Solvent: 47 parts by weight of acetone
(§2) Emulsifier: 3 parts by weight of alkylaryl polyglycol ether
(§3) To produce a suitable preparation of active compound, 1 part by weight of active compound is mixed with the stated amounts of solvent and emulsifier, and the concentrate is diluted with water to the desired concentration.
To test for protective activity, young plants are sprayed with the preparation of active compound at the stated application rate. After the spray coating has dried on, the plants are inoculated with an aqueous spore suspension of the causative organism of apple mildew Podosphaera leucotricha. The plants are then placed in a greenhouse at about 23° C. and a relative atmospheric humidity of about 70%.
Evaluation is carried out 10 days after the inoculation. 0% means an efficacy which corresponds to that of the control, whereas an efficacy of 100% means that no infection is observed.

Plasmopara vilicola = experiment: Plasmopara test (grapevine) / protective; assay type: in vivo; conditions: 144 h, application rate 100 g/ha, evaluation 6 days after inoculation, read-out: Efficacy in %
Description: as §1, §2, §3
To test for the protective activity, young plants are sprayed with the preparation of active compound at the stated application rate. After the spray coating has dried on, the plants are inoculated with an aqueous spore suspension of Plasmopara vilicola and then remain in an incubation cabin at about 20° C. and 100% relative atmospheric humidity for 1 day. The plants are then placed in a greenhouse at about 21° C. and about 90% relative atmospheric humidity for 5 days. The plants are then moistened and placed in an incubation cabin for 1 day.
Evaluation is carried out 6 days after the inoculation. 0% means an efficacy which corresponds to that of the control, whereas an efficacy of 100% means that no infection is observed.

[2] = system: greenhouse red spider mite (Tetranychus urticae); experiment: Tetranychus test (OP-resistant/dip treatment); assay type: in vivo; conditions: concentration of active compound 0.01 %, bean plants dipped, OP-resistant
Description: (§4) Solvent: 7 parts by weight of dimethylformamide
(§5) Emulsifier: 1 part by weight of alkylaryl polyglycol ether
To produce a suitable preparation of active compound, 1 part by weight of active compound is mixed with the stated amount of solvent and the stated amount of emulsifier, and the concentrate is diluted with emulsifier-containing water to the desired concentrations.
Bean plants (Phaseolus vulgaris) which are heavily infested by all stages of the greenhouse red spider mite (Tetranychus urticae) are dipped into a preparation of active compound of the desired concentration.
After the desired period of time, the effect in % is determined. 100% means that all spider mites have been killed; 0% means that none of the spider mites have been killed.

[3] = system: larvae of the green rice leafhopper (Nephotettix cincticeps); experiment: Nephotettix test; assay type: in vivo; conditions: concentration of active compound 0.1 %, rice seedlings dipped
Description: as §4, §5
(§6) To produce a suitable preparation of active compound, 1 part by weight of active compound is mixed with the stated amount of solvent and the stated amount of emulsifier, and the concentrate is diluted with water to the desired concentration.
Rice seedlings (Oryza sativa) are treated by being dipped into the preparation of active compound of the desired concentration and are populated with larvae of the green rice leafhopper (Nephotettix cincticeps) while the seedlings are still moist.
After the desired period of time, the kill in % is determined. 100% means that all leaf hoppers have been killed; 0% means that none of the leaf hoppers have been killed.

[4] = system: caterpillars of the army worm Spodoptera frugiperda; experiment: Spodoptera frugiperda test; assay type: in vivo; conditions: concentration of active compound 0.1 %, cabbage leaves dipped
Description: as §4, §5, §6
Cabbage leaves (Brassica oleracea) are treated by being dipped into the preparation of active compound of the desired concentration and are populated with caterpillars of the army worm Spodoptera frugiperda while the leaves are still moist.
After the desired period of time, the effect in % is determined. 100% means that all caterpillars have been killed; 0% means that none of the caterpillars have been killed.

[5] = system: Erysiphe graminis f.sp. tritici; experiment: Erysiphe test (wheat) / protective; assay type: in vivo; conditions: evaluation 7 days after inoculation
Description: Solvent: 25 parts by weight of N,N-dimethylacetamide
Emulsifier: 0.6 part by weight of alkylaryl polyglycol ether
as §3
To test for protective activity, young plants are sprayed with the preparation of active compound at the stated application rate.
After the spray coating has dried on, the plants are dusted with spores von Erysiphe graminis f.sp. tritici.
The plants are placed in a greenhouse at a temperature of about 20° C. and a relative atmospheric humidity of about 80% to promote the development of mildew pustules.
Evaluation is carried out 7 days after the inoculation. 0% means an efficacy which corresponds to that of the control, whereas an efficacy of 100% means that no infection is observed.

[6] = pH 2.3, pH 2.3, for Example 1 two values for the two isomers, read-out: log p (pH 2.3)
[7] = acidic, isomer mixtures, the higher log p value is stated, Table 13, read-out: log p (acidic)

| Structure (SMILES) | logP (log p determination; [6]) | pest or weed control at 0.1 % [1] [%] | Efficacy in % (Podosphaera leucotricha) [%] | logP (log p determination; [7]) | pest or weed control at 100 g/ha (Plasmopara vilicola) [%] | other results |
| --- | --- | --- | --- | --- | --- | --- |
| CC(=O)c1ccc(CC(=O)Nc2snc(C)c2Cl)cc1 | 2.12 |  |  |  |  |  |
| CCCCCCCCC1COC(C)(c2ccc(CC(=O)Nc3snc(C)c3Cl)cc2)O1 (centres unmarked) [Example 1] | 5.84 | 100 |  |  |  | log p (pH 2.3) (log p determination; pH 2.3, for Example 1 two values for the two isomers): 6.05 |
| Cc1nsc(NC(=O)Cc2ccc(C3(C)OCC(c4ccccc4)O3)cc2)c1Cl (centres unmarked) [Example 3] |  | 100 | 99 | 3.83 | 99 | Kill rate in % after 7 d [2]: 100% |
| C=CCOCC1COC(C)(c2ccc(CC(=O)Nc3snc(C)c3Cl)cc2)O1 (centres unmarked) [Example 4] |  |  |  | 3.23 | 100 | Kill rate in % after 7 d [2]: 100% |
| Cc1nsc(NC(=O)Cc2ccc(C3(C)OCC(C(C)(C)C)O3)cc2)c1Cl (centres unmarked) [Example 5] |  |  |  | 4 |  | Kill rate in % after 6 d [3]: 100%; Kill rate in % after 7 d [2]: 100% |
| Cc1nsc(NC(=O)Cc2ccc(C3(C)OCC(CCl)O3)cc2)c1Cl (centres unmarked) [Example 6] |  | 100 |  | 3.09 | 100 | Kill rate in % after 6 d [3]: 100% |
| CCC1COC(C)(c2ccc(CC(=O)Nc3snc(C)c3Cl)cc2)O1 (centres unmarked) [Example 7] |  | 100 | 97 | 3.23 | 100 | Kill rate in % after 7 d [4]: 100%; Efficacy in % ([5]; application rate 1000 g/ha): 81%; Kill rate in % after 6 d [3]: 100% |
| CC=CCCCC1COC(C)(c2ccc(CC(=O)Nc3snc(C)c3Cl)cc2)O1 (centres unmarked) [Example 8] |  | 100 | 95 | 4.4 | 97 | Kill rate in % after 7 d [4]: 100%; Efficacy in % ([5]; application rate 500 g/ha): 81%; Kill rate in % after 7 d [2]: 100% |
| Cc1nsc(NC(=O)Cc2ccc(C3(C)OCC(COc4ccc(Cl)cc4)O3)cc2)c1Cl (centres unmarked) [Example 9] |  | 100 | 97 | 4.24 | 100 |  |
| Cc1nsc(NC(=O)Cc2ccc(C3(C)OCC(c4cccc(Cl)c4)O3)cc2)c1Cl (centres unmarked) [Example 15] |  |  |  | 4.32 | 97 |  |
| Cc1nsc(NC(=O)Cc2ccc(C3(C)OCC(c4ccc(Cl)c(Cl)c4)O3)cc2)c1Cl (centres unmarked) [Example 16] |  | 100 |  | 4.82 |  |  |
| Cc1nsc(NC(=O)Cc2ccc(C3(C)OCC(c4ccc(Cl)cc4)O3)cc2)c1Cl (centres unmarked) [Example 17] |  | 100 | 99 | 4.35 | 97 | Kill rate in % after 7 d [4]: 100% |
| Cc1nsc(NC(=O)Cc2ccc(C3(C)OCC(CBr)(CBr)CO3)cc2)c1Cl [Example 20] |  |  |  | 4.21 | 96 | Kill rate in % after 7 d [4]: 100%; Kill rate in % after 6 d [3]: 100% |
| CC(=O)c1cccc(CC(=O)Nc2nc(C)ns2)c1 [Example 29, 5-[3(-acetylphenyl)acetaminol]-3-methyl-1,2,4-thiadiazole] | 1.56 |  |  |  |  | melting point: 91 to 98 °C |
| CCc1nsc(NC(=O)Cc2cccc(C(C)=O)c2)n1 [Example 30] | 1.87 |  |  |  |  | melting point: 121 to 125 °C |
| CC(=O)c1cccc(CC(=O)Nc2snc(C)c2Cl)c1 [Example 31, 5-[3-(acetylphenyl)-acetaminol]-4-chloro-3-methyl-isothiazole] | 2.14 |  |  |  |  | melting point: 77 to 83 °C |

From US6403622B1, “Phenylacetic acid heterocyclyl amides having an insecticidal effect” (Bayer Aktiengesellschaft, priority 1998, dated 2002)
